From ChEMBL document CHEMBL5537166, “PROTACs Targeting BRM (SMARCA2) Afford Selective In Vivo Degradation over BRG1 (SMARCA4) and Are Active in BRG1 Mutant Xenograft Tumor Models” (J Med Chem, 2024) come the findings set out here.

Data set [1] addresses von Hippel-Lindau disease tumor suppressor/SWI/SNF-related matrix-associated actin-dependent regulator of chromatin subfamily A member 2 (Homo sapiens, UniProt P51531+P40337). The experiment in a line: PROTAC activity at VHL/BRM in human SW1573 cells assessed as induction of […] incubated for 22 hrs by Western blotting analysis. In kind it is cell-based. For orientation: A western blot detects proteins with antibodies after separation by electrophoresis.

Data set [2] addresses von Hippel-Lindau disease tumor suppressor/SWI/SNF-related matrix-associated actin-dependent regulator of chromatin subfamily A member 4 (Homo sapiens, UniProt P51532+P40337). As to the kind of experiment: PROTAC activity at VHL/ BRG1 in human SW1573 cells assessed as induction of BRG1 degradation incubated for 22 hrs by Western blotting analysis. The data set is classed as cell-based.

For a further data set, the species on record is Homo sapiens. The experiment in a line: Ratio of DC50 for VHL/ BRG1 in human SW1573 cells to DC50 for VHL/BRM in human SW1573 cells. The data set is classed as cell-based.
The test system of the next data set is NCI-H1944. As to the kind of experiment: Antiproliferative activity against BRM-dependent human NCI-H1944 cells assessed as growth inhibition incubated for 7 days by celltiter glo 2.0 assay. In kind it is functional. As to conditions: NCI-H1944, 168 h, time 7 day. (In general: In ATP-based viability assays light output follows the ATP content of the culture.)

Data set [3] is described as follows: Drug concentration in mouse tumor at 20 mg/kg, ip measured for 96 hrs. The data set is classed as ADME, organism-based, Neoplasm. As to conditions: read-out: Ct.
Data set [4] in a line: Plasma protein binding in mouse incubated for 15 mins by LC-MS/MS analysis. In kind it is ADME, cell-free. As to conditions: read-out: PPB (converted).
Data set [5] in a line: Half life in mouse at 1 mg/kg, iv measured upto 60 mins by LC-MS/MS analysis. In kind it is ADME, organism-based. As to conditions: in vivo.
In another data set the test system is Calu-6. As to the kind of experiment: Antiproliferative activity against human Calu-6 cells assessed as growth inhibition incubated for 7 days by celltiter glo 2.0 assay. In kind it is functional. As to conditions: Calu-6, 168 h, time 7 day.
For data set [6], the system named is Mus musculus. The experiment in a line: In-vivo PROTAC activity at BRM/VHL in CD-1 mouse xenografted with human HCC2302 cells at 20 mg/kg, iv measured for 96 hrs. In kind it is functional. For orientation: A xenograft is tissue or cells of one species grown in another, often human tumour cells in immunodeficient mice.
Data set [7] can be described thus: Metabolic stability in human liver microsome assessed as hepatic extraction ratio measured upto 60 mins by LC-MS/MS analysis. The data set is classed as ADME. As to conditions: liver microsomes.
The subject of data set [8] is Mus musculus. As to the kind of experiment: In-vivo PROTAC activity at BRM/VHL in CD-1 mouse xenografted with Murine stromal cell line at 20 mg/kg, iv measured for 96 hrs. The data set is classed as functional.
A short description of data set [9]: Clearance in mouse at 1 mg/kg, iv measured upto 60 mins by LC-MS/MS analysis. The data set is classed as ADME, organism-based. As to conditions: in vivo, 1 h.
For data set [10], the target named is SWI/SNF-related matrix-associated actin-dependent regulator of chromatin subfamily A member 2 (Homo sapiens, UniProt P51531). As to the kind of experiment: Binding affinity to his-tagged BRM bromodomain (unknown origin) by alpha-LISA assay.
The nature of data set [11]: Drug concentration in mouse plasma measured for 24 hrs. In kind it is ADME, cell-free.

Sequence of von Hippel-Lindau disease tumor suppressor/SWI/SNF-related matrix-associated actin-dependent regulator of chromatin subfamily A member 2 (P51531 whole entry): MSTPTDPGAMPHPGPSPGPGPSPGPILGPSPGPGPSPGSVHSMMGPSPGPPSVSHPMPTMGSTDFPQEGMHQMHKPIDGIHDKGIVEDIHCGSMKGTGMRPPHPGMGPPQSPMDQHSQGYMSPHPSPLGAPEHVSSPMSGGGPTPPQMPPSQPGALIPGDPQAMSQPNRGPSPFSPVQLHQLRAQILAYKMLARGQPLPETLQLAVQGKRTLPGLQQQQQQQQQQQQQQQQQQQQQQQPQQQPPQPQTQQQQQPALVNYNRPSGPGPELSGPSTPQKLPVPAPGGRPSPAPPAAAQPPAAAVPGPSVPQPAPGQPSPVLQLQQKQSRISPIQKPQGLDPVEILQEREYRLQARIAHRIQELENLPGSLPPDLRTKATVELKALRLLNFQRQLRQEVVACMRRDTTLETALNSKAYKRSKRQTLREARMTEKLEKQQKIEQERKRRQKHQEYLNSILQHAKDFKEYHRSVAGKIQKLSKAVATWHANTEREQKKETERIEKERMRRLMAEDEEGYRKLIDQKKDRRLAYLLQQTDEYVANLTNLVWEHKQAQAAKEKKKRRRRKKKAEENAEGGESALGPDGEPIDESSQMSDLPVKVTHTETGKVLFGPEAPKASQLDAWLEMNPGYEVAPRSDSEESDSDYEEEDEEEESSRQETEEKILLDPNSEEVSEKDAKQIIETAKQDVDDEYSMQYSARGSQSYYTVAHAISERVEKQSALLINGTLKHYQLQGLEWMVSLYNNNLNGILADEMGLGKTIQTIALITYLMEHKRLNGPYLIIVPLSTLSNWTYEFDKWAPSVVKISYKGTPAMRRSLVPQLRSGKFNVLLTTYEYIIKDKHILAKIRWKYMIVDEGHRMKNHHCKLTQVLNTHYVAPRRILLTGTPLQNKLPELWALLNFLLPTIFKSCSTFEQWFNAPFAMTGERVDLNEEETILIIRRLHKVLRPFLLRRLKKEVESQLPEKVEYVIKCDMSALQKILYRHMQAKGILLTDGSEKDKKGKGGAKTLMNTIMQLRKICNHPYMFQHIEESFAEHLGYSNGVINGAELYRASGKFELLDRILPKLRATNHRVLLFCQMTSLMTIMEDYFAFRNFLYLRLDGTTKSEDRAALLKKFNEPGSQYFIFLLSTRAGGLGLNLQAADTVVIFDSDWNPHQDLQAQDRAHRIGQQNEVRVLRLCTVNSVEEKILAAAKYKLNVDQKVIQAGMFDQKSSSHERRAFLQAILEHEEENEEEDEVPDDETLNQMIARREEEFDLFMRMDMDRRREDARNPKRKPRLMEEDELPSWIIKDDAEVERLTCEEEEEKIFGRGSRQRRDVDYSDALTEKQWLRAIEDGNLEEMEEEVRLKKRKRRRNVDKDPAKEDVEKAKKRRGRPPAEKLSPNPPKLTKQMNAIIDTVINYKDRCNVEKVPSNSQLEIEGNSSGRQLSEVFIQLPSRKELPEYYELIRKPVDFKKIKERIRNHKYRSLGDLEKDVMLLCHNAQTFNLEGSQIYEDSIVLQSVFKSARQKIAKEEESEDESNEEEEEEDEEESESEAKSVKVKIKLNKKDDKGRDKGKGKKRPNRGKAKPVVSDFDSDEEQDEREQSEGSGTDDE
Sequence of von Hippel-Lindau disease tumor suppressor/SWI/SNF-related matrix-associated actin-dependent regulator of chromatin subfamily A member 2 (P40337 whole entry): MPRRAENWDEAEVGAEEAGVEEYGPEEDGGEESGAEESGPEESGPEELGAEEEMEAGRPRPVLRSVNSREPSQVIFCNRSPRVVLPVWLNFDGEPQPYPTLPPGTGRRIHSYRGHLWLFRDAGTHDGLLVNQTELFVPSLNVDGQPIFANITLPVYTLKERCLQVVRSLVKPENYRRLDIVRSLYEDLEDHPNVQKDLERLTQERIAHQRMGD
Sequence of von Hippel-Lindau disease tumor suppressor/SWI/SNF-related matrix-associated actin-dependent regulator of chromatin subfamily A member 4 (P51532 whole entry): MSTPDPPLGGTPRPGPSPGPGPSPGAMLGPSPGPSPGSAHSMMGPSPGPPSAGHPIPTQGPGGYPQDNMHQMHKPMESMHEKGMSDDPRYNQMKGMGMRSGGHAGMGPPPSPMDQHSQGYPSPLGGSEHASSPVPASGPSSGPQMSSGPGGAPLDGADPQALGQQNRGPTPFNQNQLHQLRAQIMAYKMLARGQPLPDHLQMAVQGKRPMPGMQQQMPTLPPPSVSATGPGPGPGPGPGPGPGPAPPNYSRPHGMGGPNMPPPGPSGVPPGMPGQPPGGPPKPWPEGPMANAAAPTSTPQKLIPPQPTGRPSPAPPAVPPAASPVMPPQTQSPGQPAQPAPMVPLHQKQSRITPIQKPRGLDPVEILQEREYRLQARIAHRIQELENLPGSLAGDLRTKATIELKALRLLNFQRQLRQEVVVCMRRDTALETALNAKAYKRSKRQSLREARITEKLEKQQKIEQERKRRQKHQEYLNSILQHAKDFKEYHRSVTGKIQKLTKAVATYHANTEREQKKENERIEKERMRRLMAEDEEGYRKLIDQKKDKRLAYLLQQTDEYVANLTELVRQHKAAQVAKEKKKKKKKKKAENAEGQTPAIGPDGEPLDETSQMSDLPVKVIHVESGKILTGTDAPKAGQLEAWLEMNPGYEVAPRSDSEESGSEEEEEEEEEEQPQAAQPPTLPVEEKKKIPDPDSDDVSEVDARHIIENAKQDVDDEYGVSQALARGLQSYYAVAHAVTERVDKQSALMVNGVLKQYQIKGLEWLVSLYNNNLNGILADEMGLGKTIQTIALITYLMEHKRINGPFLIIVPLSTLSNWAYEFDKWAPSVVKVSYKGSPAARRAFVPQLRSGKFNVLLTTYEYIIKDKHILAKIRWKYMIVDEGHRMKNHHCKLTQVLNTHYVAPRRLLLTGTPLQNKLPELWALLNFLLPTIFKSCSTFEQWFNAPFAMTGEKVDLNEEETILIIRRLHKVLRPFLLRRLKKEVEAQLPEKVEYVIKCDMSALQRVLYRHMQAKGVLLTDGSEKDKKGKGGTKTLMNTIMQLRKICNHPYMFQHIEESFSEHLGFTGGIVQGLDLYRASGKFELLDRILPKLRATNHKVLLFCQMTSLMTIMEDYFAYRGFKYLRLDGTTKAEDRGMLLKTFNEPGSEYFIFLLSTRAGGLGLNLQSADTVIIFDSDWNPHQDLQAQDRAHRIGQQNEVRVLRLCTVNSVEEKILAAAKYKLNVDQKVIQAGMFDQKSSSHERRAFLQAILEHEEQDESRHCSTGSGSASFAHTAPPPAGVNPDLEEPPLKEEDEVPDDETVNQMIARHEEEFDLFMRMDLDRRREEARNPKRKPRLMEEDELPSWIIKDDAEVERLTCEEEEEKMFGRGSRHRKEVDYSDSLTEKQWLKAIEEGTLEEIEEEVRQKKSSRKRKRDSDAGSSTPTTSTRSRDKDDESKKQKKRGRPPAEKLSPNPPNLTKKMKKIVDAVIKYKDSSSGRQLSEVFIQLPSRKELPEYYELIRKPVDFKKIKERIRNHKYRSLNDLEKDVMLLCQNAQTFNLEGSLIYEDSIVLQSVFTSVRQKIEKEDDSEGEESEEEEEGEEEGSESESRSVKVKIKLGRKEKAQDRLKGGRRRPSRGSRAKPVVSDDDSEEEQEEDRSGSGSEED
Sequence of von Hippel-Lindau disease tumor suppressor/SWI/SNF-related matrix-associated actin-dependent regulator of chromatin subfamily A member 4 (P40337 whole entry): as the sequence (P40337 whole entry) above
Sequence of SWI/SNF-related matrix-associated actin-dependent regulator of chromatin subfamily A member 2 (P51531 whole entry): as the sequence (P51531 whole entry) above

As for `Cc1ncsc1-c1ccc(CNC(=O)[C@@H]2C[C@@H](O)CN2C(=O)[C@@H](NC(=O)COCCOCCOCCOc2cc(N3C4CCC3CN(c3cc(-c5ccccc5O)nnc3N)C4)ccn2)C(C)(C)C)cc1`, the figures for the DC50 in data set [1] and in data set [2] were 32 nM and 703 nM, respectively. Moreover, the Ratio in the data set filed under Homo sapiens was determined as 7.8.
For the compound `Cc1ncsc1-c1ccc([C@H](C)NC(=O)[C@@H]2C[C@@H](O)CN2C(=O)[C@@H](c2cc(N3CCC(CN4CCC(Oc5cc(N6C7CCC6CN(c6cc(-c8ccccc8O)nnc6N)C7)ccn5)CC4)CC3)no2)C(C)C)cc1`, the values for the GI50 with NCI-H1944 and with Calu-6 were 0.23 nM and 3.7 nM, respectively. Besides, the DC50 (usually the midpoint of the concentration-degradation curve) is 0.053 nM in [1] and 0.99 nM in [2]. In data set [3], the concentration at 96 h is 774 ng/g. Further, the fraction unbound at 0.25 h in data set [4] was 0.006. The half-life (in general, the time needed for the level to fall by half in the phase considered) in data set [5] was 6.7 h. The Activity in the data set with Mus musculus [6] worked out at 83%; in the data set on Mus musculus [8], 59%. In data set [7], the hepatic extraction ratio at 1 h worked out at 0.41. Further, the clearance – broadly, the volume of plasma or blood freed of the substance per unit of time – in data set [9] is 6.7 mL/min/kg.
Turning to `Cc1ncsc1-c1ccc(CNC(=O)[C@@H]2C[C@@H](O)CN2C(=O)[C@@H](c2cc(OCCOCCOCCOc3cc(N4C5CCC4CN(c4cc(-c6ccccc6O)nnc4N)C5)ccn3)no2)C(C)C)cc1`, the DC50 in data set [1] turned out to be 0.76 nM; in data set [2], 5.9 nM. Moreover, the Ratio in the data set filed under Homo sapiens was 2.2.
As to `COc1cc(N2C3CCC2CN(c2cc(-c4ccccc4O)nnc2N)C3)ccn1`, the GI50 in the data set with NCI-H1944 and in the data set on Calu-6 was greater than 300 nM in each case. Further, the IC50 (as a rule, the concentration that gives 50% inhibition) in [10] is 1.2 nM.
For `Cc1ncsc1-c1ccc([C@H](C)NC(=O)[C@@H]2C[C@@H](O)CN2C(=O)[C@@H](c2cc(N3CCN(C[C@H]4C[C@H](Oc5cc(N6C7CCC6CN(c6cc(-c8ccccc8O)nnc6N)C7)ccn5)C4)CC3)no2)C(C)C)cc1`, the results for the GI50 in the data set on NCI-H1944 and with Calu-6 were 0.45 nM and 6.8 nM, respectively. Also, the DC50 came to 0.09 nM in data set [1] and 1.3 nM in data set [2]. In addition, the concentration at 96 h in data set [3] came to 75 ng/g. Further, the fraction unbound at 0.25 h in data set [4] was 0.011. The compound further showed a half-life in [5] of 3.7 h. For the same compound, the Activity with Mus musculus [6] is reported as 87%; with Mus musculus [8] it was 53%. For the same compound, the hepatic extraction ratio at 1 h in data set [7] came out at 0.27. Moreover, in data set [9], the clearance is 11 mL/min/kg.
For `Cc1ncsc1-c1ccc([C@H](C)NC(=O)[C@@H]2C[C@@H](O)CN2C(=O)[C@@H](c2cc(OCCN3CCN(CCOc4cc(N5C6CCC5CN(c5cc(-c7ccccc7O)nnc5N)C6)ccn4)C[C@@H]3C)no2)C(C)C)cc1`, the GI50 (as a rule, the concentration giving 50% growth inhibition) with NCI-H1944 turned out to be 0.72 nM; in the data set with Calu-6 it was 38 nM. Further, the figures for the half-maximal degradation concentration (DC50) in data set [1] and in [2] were 0.11 nM and 2.7 nM, respectively. Moreover, in the data set filed under Homo sapiens, the Ratio came to 25. Besides, in [7], the hepatic extraction ratio at 1 h came to 0.83.
Consider `Cc1ncsc1-c1ccc([C@H](C)NC(=O)[C@@H]2C[C@H](O)CN2C(=O)[C@@H](c2cc(N3CCC(CN4CCC(O[C@H]5C[C@H](Oc6cc(N7C8CCC7CN(c7cc(-c9ccccc9O)nnc7N)C8)ccn6)C5)CC4)CC3)no2)C(C)C)cc1`, for which the GI50 in the data set on NCI-H1944 was greater than 300 nM.
As for `Cc1ncsc1-c1ccc([C@H](C)NC(=O)[C@@H]2C[C@@H](O)CN2C(=O)[C@@H](c2cc(N3CCN(CC4CCN(C[C@H]5C[C@H](Oc6cc(N7C8CCC7CN(c7cc(-c9ccccc9O)nnc7N)C8)ccn6)C5)CC4)CC3)no2)C(C)C)cc1`, the figures for the GI50 in the data set with NCI-H1944 and with Calu-6 were 0.72 nM and 10 nM, respectively. Also, the DC50 in data set [1] stood at 0.062 nM; in data set [2] it was 1.4 nM. Moreover, the fraction unbound at 0.25 h in [4] was 0.035. Further, the half-life in [5] is 17 h. The results for the Activity in the data set with Mus musculus [6] and in the data set with Mus musculus [8] were 95% and 83%, respectively. In addition, in [7], the hepatic extraction ratio at 1 h worked out at 0.15. This compound also displayed a clearance in data set [9] of 12 mL/min/kg.
For `Cc1ncsc1-c1ccc(CNC(=O)[C@@H]2C[C@@H](O)CN2C(=O)[C@@H](c2cc(OCCN3CCN(CCOc4cc(N5C6CCC5CN(c5cc(-c7ccccc7O)nnc5N)C6)ccn4)CC3)no2)C(C)C)cc1`, the values for the concentration for 50% growth inhibition (GI50) in the data set on NCI-H1944 and in the data set with Calu-6 were 3.6 nM and 62 nM, respectively. Moreover, the figures for the DC50 in data set [1] and in data set [2] were 0.39 nM and 9.5 nM, respectively. Besides, the fraction unbound at 0.25 h in data set [4] was 0.015. The hepatic extraction ratio at 1 h in data set [7] worked out at 0.65.
`Cc1ncsc1-c1ccc([C@H](C)NC(=O)[C@@H]2C[C@@H](O)CN2C(=O)[C@@H](c2cc(N3CCC(O[C@H]4C[C@H](Oc5cc(N6C7CCC6CN(c6cc(-c8ccccc8O)nnc6N)C7)ccn5)C4)CC3)no2)C(C)C)cc1`: the figures for the GI50 with NCI-H1944 and with Calu-6 were 0.3 nM and 4.4 nM, respectively. Besides, the DC50 in data set [1] stood at 0.14 nM; in data set [2], 1.8 nM. Further, in [3], the concentration at 96 h turned out to be 175 ng/g. Moreover, the fraction unbound at 0.25 h in data set [4] was 0.019. The concentration at 24 h in data set [11] was 112 nM. Besides, in [5], the half-life is 1.4 h. Besides, the Ratio in the data set filed under Homo sapiens amounted to 13. The Activity in the data set with Mus musculus [6] worked out at 70%; in the data set with Mus musculus [8] it was 22%. In data set [7], the hepatic extraction ratio at 1 h amounted to 0.14. In data set [9], this compound returned a clearance of 9.2 mL/min/kg.
`Cc1ncsc1-c1ccc([C@H](C)NC(=O)[C@@H]2C[C@H](O)CN2C(=O)[C@@H](c2cc(OCCN3CCC(O[C@H]4C[C@H](Oc5cc(N6C7CCC6CN(c6cc(-c8ccccc8O)nnc6N)C7)ccn5)C4)CC3)no2)C(C)C)cc1`: in the data set on NCI-H1944, the GI50 was greater than 300 nM.
As for `Cc1ncsc1-c1ccc([C@H](C)NC(=O)[C@@H]2C[C@@H](O)CN2C(=O)[C@@H](c2cc(OCC#Cc3ccc(O[C@H]4C[C@H](Oc5cc(N6C7CCC6CN(c6cc(-c8ccccc8O)nnc6N)C7)ccn5)C4)cn3)no2)C(C)C)cc1`, the results for the GI50 in the data set on NCI-H1944 and in the data set on Calu-6 were 0.7 nM and 28 nM, respectively. The results for the DC50 in [1] and in data set [2] were 27 nM and 5.1 nM, respectively. The fraction unbound at 0.25 h in [4] is 0.016. The concentration at 24 h in data set [11] amounted to 129 nM. Further, the half-life in data set [5] is 1.5 h. Further, the Ratio in the data set listed under Homo sapiens was 19. For the same compound, the hepatic extraction ratio at 1 h in data set [7] turned out to be 0.15. The same compound yielded a clearance in data set [9] of 22 mL/min/kg.
With `Cc1ncsc1-c1ccc([C@H](C)NC(=O)[C@@H]2C[C@@H](O)CN2C(=O)[C@@H](c2cc(N3CCN(CCN4CCC(O[C@H]5C[C@H](Oc6cc(N7C8CCC7CN(c7cc(-c9ccccc9O)nnc7N)C8)ccn6)C5)CC4)CC3)no2)C(C)C)cc1`, the GI50 in the data set with NCI-H1944 is 1.3 nM; with Calu-6, 11 nM. The DC50 in [1] was found to be 0.085 nM; in data set [2], 3.2 nM. In addition, the concentration at 96 h in data set [3] came out at 840 ng/g. Besides, in data set [4], the fraction unbound at 0.25 h is 0.034. For the same compound, the concentration at 24 h in [11] came to 108 nM. In addition, the half-life in data set [5] is 13 h. The Ratio in the data set listed under Homo sapiens is 38. The Activity in the data set on Mus musculus [6] came to 56%; with Mus musculus [8], 28%. Besides, the hepatic extraction ratio at 1 h in data set [7] amounted to 0.4. Moreover, in [9], the clearance came out at 9.6 mL/min/kg.
In the case of `Cc1ncsc1-c1ccc([C@H](C)NC(=O)[C@@H]2C[C@@H](O)CN2C(=O)[C@@H](c2cc(OCCN3CCN(CCOc4cc(N5C6CCC5CN(c5cc(-c7ccccc7O)nnc5N)C6)ccn4)[C@H](C)C3)no2)C(C)C)cc1`, the values for the GI50 in the data set with NCI-H1944 and in the data set with Calu-6 were 0.26 nM and 12 nM, respectively. Also, the figures for the DC50 in data set [1] and in data set [2] were 0.055 nM and 0.71 nM, respectively. Besides, the concentration at 96 h in data set [3] is 76 ng/g. In data set [4], the fraction unbound at 0.25 h was 0.015. This compound had a concentration at 24 h in data set [11] of 22 nM. Also, the Ratio in the data set filed under Homo sapiens was found to be 13. Further, the Activity in the data set with Mus musculus [6] and in the data set with Mus musculus [8] was 0% each time. In data set [7], the hepatic extraction ratio at 1 h worked out at 0.83.
For the compound `COCCOc1cc(N2C3CCC2CN(c2cc(-c4ccccc4O)nnc2N)C3)ccn1`, the IC50 in data set [10] was determined as 2.7 nM.
